Several values for one entry are separate records, joined by “and”; a condition that tells them apart may be missing. Identical values can stand only once. Like-named read-outs stand apart in the source and are kept apart here.
Key:
Format in all cases: cell-based, Plasmodium falciparum
NF54^CTL parasites = assay: P. falciparum proliferation assay (72 h, flow cytometry, SYBR Green I/MitoTracker); details: for IC50: NF54, NF54CTL
Outline: (§1)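 Predominantly ring-stage cultures at 0.3% parasitaemia, 1% haematocrit, in medium with 10% O+ human serum; compound exposure 72 h, DMSO <0.5% (v/v). Live parasites counted by flow cytometry with SYBR Green I and 200 nM MitoTracker Deep Red. IC50/IC90 from linear interpolation of dose-response data.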

NF54^G358S-1 parasites = assay: as above
Outline: as §1

NF54^G358S-2 parasites = assay: as above
Outline: as §1

[1] = system: Dd2-Polδ-PfATP4^G358S parasites; assay: P. falciparum proliferation assay (72 h, fluorescent DNA-intercalating dye)
Procedure: (§2) For experiments with all other parasites, the effects of compounds of interest on parasite proliferation was measured in 96-well plates containing serial dilutions of the compounds in culture medium, with a fluorescent DNA-intercalating dye used to detect surviving parasites. The assays were initiated with erythrocytes infected with predominantly ring-stage parasites, and the starting parasitaemia and haematocrit were both 1%.

[2] = system: HCR1 parasites (highly cipargamin-resistant clone 1); assay: as above; details: for Parasite proliferation (% of no-cipargamin control), MEAN: MEAN of 16 experiments; for IC50: Plasmodium falciparum
Procedure: as §2

[3] = system: HCR2 parasites (highly cipargamin-resistant clone 2); assay: as above; details: for Parasite proliferation (% of no-cipargamin control), MEAN: MEAN of 16 experiments; for IC50: Plasmodium falciparum
Procedure: as §2

Dd2 parasites = assay: as above; details: for Parasite proliferation (% of no-cipargamin control), MEAN: MEAN of 16 experiments
Procedure: as §2

[4] = system: Dd2-PfATP4^T418N,P990R parasites; assay: as above; details: for Parasite proliferation (% of no-cipargamin control), MEAN: MEAN of 16 experiments
Procedure: as §2

C[C@H]1Cc2c([nH]c3cc(Cl)c(F)cc23)[C@@]2(N1)C(=O)Nc1ccc(Cl)cc12 [Cipargamin]
FC (IC50) (NF54^CTL parasites; NF54CTL compared to NF54WT): 1.0 fold | FC (IC90) (NF54^CTL parasites; NF54CTL compared to NF54WT): 1.0 fold | IC90 (NF54^CTL parasites; NF54CTL parasites, individual experiments, read-out: IC90 values): 3.6 nM and 3.4 nM | IC90 (NF54^CTL parasites; Plasmodium falciparum, NF54, NF54CTL parasites, individual experiments, read-out: IC90 values): 4.1 nM | IC90 (NF54^CTL parasites; Plasmodium falciparum, NF54, NF54CTL parasites, mean of the experiments, read-out: IC90 values, MEAN): 3.7 nM | IC50 (NF54^CTL parasites; Plasmodium falciparum, 10% human serum, read-out: IC50 ± SEM): 2.6 ± 0.1 nM | IC50 (NF54^CTL parasites; Plasmodium falciparum, MEAN, source data of Fig. 2, read-out: IC50 values, MEAN): 2.55 nM | IC50 (NF54^G358S-1 parasites; NF54G358S-1, single experiments, source data of Fig. 2 (nM in Supplementary Table 5), read-out: IC50 values): 2030 nM and 1970 nM and 2280 nM | FC (IC50) (NF54^G358S-1 parasites; NF54G358S-1 compared to NF54WT): 768.6 fold | FC (IC90) (NF54^G358S-1 parasites; NF54G358S-1 compared to NF54WT): 910.8 fold | IC90 (NF54^G358S-1 parasites; NF54G358S-1 parasites, individual experiments, read-out: IC90 values): 3.46 µM (2×) and 3.39 µM | IC50 (NF54^G358S-1 parasites; Plasmodium falciparum, NF54, NF54G358S-1, 10% human serum, read-out: IC50 ± SEM): 2030 ± 93.9 nM | IC90 (NF54^G358S-1 parasites; Plasmodium falciparum, NF54, NF54G358S-1, 10% human serum, read-out: IC90 ± SEM): 3.461 ± 0.0307 µM | IC50 (NF54^G358S-1 parasites; Plasmodium falciparum, NF54, NF54G358S-1, MEAN, source data of Fig. 2, read-out: IC50 values, MEAN): 2030 nM | IC50 (NF54^G358S-1 parasites; Plasmodium falciparum, NF54, NF54G358S-1, single experiments, source data of Fig. 2 (nM in Supplementary Table 5), read-out: IC50 values): 1840 nM | IC90 (NF54^G358S-1 parasites; Plasmodium falciparum, NF54, NF54G358S-1 parasites, individual experiments, read-out: IC90 values): 3.54 µM | IC90 (NF54^G358S-1 parasites; Plasmodium falciparum, NF54, NF54G358S-1 parasites, mean of the experiments, read-out: IC90 values, MEAN): 3.46 µM | IC50 (NF54^G358S-2 parasites; NF54G358S-2, single experiments, source data of Fig. 2 (nM in Supplementary Table 5), read-out: IC50 values): 1750 nM and 2010 nM and 2430 nM | FC (IC50) (NF54^G358S-2 parasites; NF54G358S-2 compared to NF54WT): 751.9 fold | FC (IC90) (NF54^G358S-2 parasites; NF54G358S-2 compared to NF54WT): 903.4 fold | IC90 (NF54^G358S-2 parasites; NF54G358S-2 parasites, individual experiments, read-out: IC90 values): 3.35 µM and 3.42 µM and 3.53 µM | IC90 (NF54^G358S-2 parasites; Plasmodium falciparum, NF54, NF54G358S-2, 10% human serum, read-out: IC90 ± SEM): 3.43 ± 0.0367 µM | IC50 (NF54^G358S-2 parasites; Plasmodium falciparum, NF54, NF54G358S-2, MEAN, source data of Fig. 2, read-out: IC50 values, MEAN): 1980 nM | IC50 (NF54^G358S-2 parasites; Plasmodium falciparum, NF54, NF54G358S-2, single experiments, source data of Fig. 2 (nM in Supplementary Table 5), read-out: IC50 values): 1750 nM | IC90 (NF54^G358S-2 parasites; Plasmodium falciparum, NF54, NF54G358S-2 parasites, individual experiments, read-out: IC90 values): 3.43 µM | IC90 (NF54^G358S-2 parasites; Plasmodium falciparum, NF54, NF54G358S-2 parasites, mean of the experiments, read-out: IC90 values, MEAN): 3.43 µM | IC50 ([1]; Dd2-Polδ-PfATP4G358S, single experiments, source data of Fig. 2 (nM in Supplementary Table 1), read-out: IC50 values): 1140 nM and 1420 nM and 1580 nM and 1640 nM and 1670 nM and 1510 nM | IC50 ([1]; Plasmodium falciparum, DD2, Dd2-Polδ-PfATP4G358S, MEAN, source data of Fig. 2, read-out: IC50 values, MEAN): 1420 nM | IC50 ([1]; Plasmodium falciparum, DD2, Dd2-Polδ-PfATP4G358S, single experiments, source data of Fig. 2 (nM in Supplementary Table 1), read-out: IC50 values): 980 nM | Parasite proliferation (% of no-cipargamin control), MEAN ([2]; HCR1, [Cipargamin] 100 nM): 98.5 % of no-cipargamin control | Parasite proliferation (% of no-cipargamin control) ([2]; HCR1, [Cipargamin] 100 nM, single experiments 1-16): 100.9 % of no-cipargamin control and 100.0 % of no-cipargamin control and 87.1 % of no-cipargamin control and 88.2 % of no-cipargamin control | Parasite proliferation (% of no-cipargamin control), MEAN ([2]; HCR1, [Cipargamin] 200 nM): 94.4 % of no-cipargamin control | Parasite proliferation (% of no-cipargamin control), MEAN ([2]; HCR1, [Cipargamin] 400 nM): 91.8 % of no-cipargamin control | Parasite proliferation (% of no-cipargamin control), MEAN ([2]; HCR1, [Cipargamin] 800 nM): 83.6 % of no-cipargamin control | Parasite proliferation (% of no-cipargamin control), MEAN ([2]; HCR1, [Cipargamin] 1600 nM): 71.5 % of no-cipargamin control | Parasite proliferation (% of no-cipargamin control), MEAN ([2]; HCR1, [Cipargamin] 3200 nM): 44.9 % of no-cipargamin control | Parasite proliferation (% of no-cipargamin control), MEAN ([2]; HCR1, [Cipargamin] 6400 nM): 13.3 % of no-cipargamin control | Parasite proliferation (% of no-cipargamin control), MEAN ([2]; HCR1, [Cipargamin] 25600 nM): -0.564 % of no-cipargamin control | IC50 ([2]; HCR1, MEAN, source data of Fig. 2, read-out: IC50 values, MEAN): 2840 nM | IC50 ([2]; read-out: Mean IC50 value ± SEM for growth inhibition, HCR1, Supplementary Table 1, Set 1): 2840 ± 190 nM | Parasite proliferation (% of no-cipargamin control), MEAN ([3]; HCR2, [Cipargamin] 100 nM): 99.1 % of no-cipargamin control | Parasite proliferation (% of no-cipargamin control) ([3]; HCR2, [Cipargamin] 100 nM, single experiments 1-16): 100.1 % of no-cipargamin control and 100.0 % of no-cipargamin control and 96.3 % of no-cipargamin control and 89.0 % of no-cipargamin control | Parasite proliferation (% of no-cipargamin control), MEAN ([3]; HCR2, [Cipargamin] 200 nM): 93.8 % of no-cipargamin control | Parasite proliferation (% of no-cipargamin control), MEAN ([3]; HCR2, [Cipargamin] 400 nM): 90.7 % of no-cipargamin control | Parasite proliferation (% of no-cipargamin control), MEAN ([3]; HCR2, [Cipargamin] 800 nM): 85.4 % of no-cipargamin control | Parasite proliferation (% of no-cipargamin control), MEAN ([3]; HCR2, [Cipargamin] 1600 nM): 71.9 % of no-cipargamin control | Parasite proliferation (% of no-cipargamin control), MEAN ([3]; HCR2, [Cipargamin] 3200 nM): 46.7 % of no-cipargamin control | Parasite proliferation (% of no-cipargamin control), MEAN ([3]; HCR2, [Cipargamin] 6400 nM): 13.6 % of no-cipargamin control | Parasite proliferation (% of no-cipargamin control), MEAN ([3]; HCR2, [Cipargamin] 25600 nM): -0.466 % of no-cipargamin control | IC50 ([3]; HCR2, MEAN, source data of Fig. 2, read-out: IC50 values, MEAN): 2920 nM | IC50 ([3]; read-out: Mean IC50 value ± SEM for growth inhibition, HCR2, Supplementary Table 1, Set 1): 2920 ± 200 nM | Mean IC50 value ± SEM for growth inhibition (Dd2 parasites; Dd2, Supplementary Table 1, Set 1): subnanomolar | Parasite proliferation (% of no-cipargamin control), MEAN (Dd2 parasites; Dd2, [Cipargamin] 0.195312 nM): 100.9 % of no-cipargamin control | Parasite proliferation (% of no-cipargamin control), MEAN (Dd2 parasites; Dd2, [Cipargamin] 0.390625 nM): 94.5 % of no-cipargamin control | Parasite proliferation (% of no-cipargamin control), MEAN (Dd2 parasites; Dd2, [Cipargamin] 0.78125 nM): 30.2 % of no-cipargamin control | Parasite proliferation (% of no-cipargamin control), MEAN (Dd2 parasites; Dd2, [Cipargamin] 1.5625 nM): 3.4 % of no-cipargamin control | Parasite proliferation (% of no-cipargamin control), MEAN (Dd2 parasites; Dd2, [Cipargamin] 3.125 nM): 0.3 % of no-cipargamin control | Parasite proliferation (% of no-cipargamin control), MEAN (Dd2 parasites; Dd2, [Cipargamin] 6.25 nM): 0.5 % of no-cipargamin control | Parasite proliferation (% of no-cipargamin control), MEAN (Dd2 parasites; Dd2, [Cipargamin] 25 nM): 0.0247 % of no-cipargamin control | IC50 (Dd2 parasites; Plasmodium falciparum, DD2, read-out: IC50 values, MEAN, Dd2, MEAN, source data of Fig. 2): 0.68 nM | Parasite proliferation (% of no-cipargamin control), MEAN ([4]; Dd2-PfATP4T418N,P990R, [Cipargamin] 0.195312 nM): 100.7 % of no-cipargamin control | Parasite proliferation (% of no-cipargamin control), MEAN ([4]; Dd2-PfATP4T418N,P990R, [Cipargamin] 0.390625 nM): 102.0 % of no-cipargamin control | Parasite proliferation (% of no-cipargamin control), MEAN ([4]; Dd2-PfATP4T418N,P990R, [Cipargamin] 0.78125 nM): 99.8 % of no-cipargamin control | Parasite proliferation (% of no-cipargamin control), MEAN ([4]; Dd2-PfATP4T418N,P990R, [Cipargamin] 1.5625 nM): 99.9 % of no-cipargamin control | Parasite proliferation (% of no-cipargamin control), MEAN ([4]; Dd2-PfATP4T418N,P990R, [Cipargamin] 3.125 nM): 94.7 % of no-cipargamin control | Parasite proliferation (% of no-cipargamin control), MEAN ([4]; Dd2-PfATP4T418N,P990R, [Cipargamin] 6.25 nM): 78.8 % of no-cipargamin control | Parasite proliferation (% of no-cipargamin control), MEAN ([4]; Dd2-PfATP4T418N,P990R, [Cipargamin] 25 nM): 1.2 % of no-cipargamin control | IC50 ([4]; Dd2-PfATP4T418N,P990R, single experiments, source data of Fig. 2 (nM in Supplementary Table 1), read-out: IC50 values): 7.9 nM | IC50 ([4]; Plasmodium falciparum, DD2, Dd2-PfATP4T418N,P990R, MEAN, source data of Fig. 2, read-out: IC50 values, MEAN): 9.17 nM | IC50 ([4]; Plasmodium falciparum, DD2, Dd2-PfATP4T418N,P990R, Supplementary Table 1, Set 1, read-out: Mean IC50 value ± SEM for growth inhibition): < 10 nM

From article PMC9525273 (Nature Communications, 2022)
